Consider 4 compounds from patent US20110039873A1, “SUBSTITUTED PYRAZOLO[1,5-a] PYRIDINE COMPOUNDS HAVING MULTI-TARGET ACTIVITY” (priority 2009, published 2011).

Molecules are shown by their SMILES.

The target in assay [1] is T1, recombinant human phosphodiesterase 10A1 enzyme (Homo sapiens, UniProt Q9Y233).
T1 construct: purchased BPS Biosciences; host or cells: Baculovirus infected Sf9 cells
As to the kind of experiment: PDE10 inhibition assay (PDELight). Format: biochemical. The note with it: for IC50: 1 uM cAMP, read-out: PDE 10 Inhibition (IC50 in μM); for PDE-10 inhibition (in words): Table 2.

The subject of assay [2] is phosphorylated c-Jun (serine-73). As to the kind of experiment: Phosphorylated c-JUN (6-OHDA), SH-SY5Y. The note with it: Homo sapiens, 50 uM 6-hydroxydopamine, 1.5 hours, read-out: p-cJun 6-OHDA SH-SY5Y (EC50 in μM). Format: cell-based. The method in brief:
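SH-SY5Y cells challenged with 50 uM 6-hydroxydopamine with or without compound (0-30 uM) for 1.5 hours, then paraformaldehyde-fixed. Phospho-c-Jun (Ser73) quantified by cell-based ELISA.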

Assay [3] shares this test system. As to the kind of experiment: Phosphorylated c-JUN (A-beta), SH-SY5Y. Format: cell-based. As to conditions: Homo sapiens. The method, then:
In 96-well plates either human SH-SY5Y neuroblastoma cells at 2.5×10^4 cells/well or E18 rat neuronal cells at 1.5×10^4 cells/well were seeded. […] Supernatant was discarded and cells were fixed with 4% paraformaldehyde (100 ul/well) for 20 minutes. FACE cell based ELISA assay (Active Motif) was performed specific for quantifying phosphorlyated c-Jun (serine-73).

Assay [4] has the same test system. As to the kind of experiment: Phosphorylated c-JUN (A-beta), E18 rat neuronal cells. The note with it: Amyloid Beta peptide 30 uM, 3 hours, read-out: p-cJun Abeta E18 (EC50 in μM). Format: cell-based. Here is the method:
In 96-well plates either human SH-SY5Y neuroblastoma cells at 2.5×10^4 cells/well or E18 rat neuronal cells at 1.5×10^4 cells/well were seeded. To each well the following was added, Amyloid Beta peptide 1-25 (source) at a concentration of 30 uM, retinoic acid (10 uM) and test compounds (0-30 uM) and incubated for 3 hours. Supernatant was discarded and cells were fixed with 4% paraformaldehyde (100 ul/well) for 20 minutes. FACE cell based ELISA assay (Active Motif) was performed specific for quantifying phosphorlyated c-Jun (serine-73).

In the next assay the test system is Male Wistar rats. The assay is described as follows: Morris Maze test. The assay is classed as in vivo, rat. From the text:
The potential cognitive enhancing properties of the exemplary compound, AV1137, were examined in the Morris Maze test in the rat.
Male Wistar rats were given 4 training sessions over 4 consecutive days. The training session consisted of 4 consecutive trials in the Morris Maze, each separated by 60 seconds. For each trial, the animal was placed in the maze at one of two starting points equidistant from the escape platform and allowed to find the escape platform. The animal was left on the escape platform for 60 seconds before starting a new trial. […] During the 4 trials the animals started the maze twice from each starting point in a randomly determined order per animal.
The trials were video-recorded and the behaviour of animals was analysed using a video-tracking system (Panlab: SMART). The measures taken were the escape latency, the path length and the swim speed at each trial. Scopolamine (0.5 mg/kg i.p.), administered 30 minutes before each session, induces amnesia as indicated by the failure of scopolamine-treated rats to reduce their escape latencies from trial to trial. 12 rats were studied per group. […]
AV1137 was evaluated at 2 and 5 mg/kg, administered twice daily. […]
AV1137 was also administered at the end of each acquisition day (i.e. 6-8 hours after the first administration). […] Data were analyzed by comparing treated groups with appropriate control using unpaired Student's t tests.

For the next assay, the system named is 6-OHDA lesioned rats. The assay is described as follows: 6-OHDA (Parkinson's) model, apomorphine induced rotations. The assay is classed as in vivo, rat. As to conditions: 50 mg/kg PO once daily, after 7 days; control 444, baseline 315. The method, then:
AV1173 was evaluated in a 6-OHDA lesioned rats, a standard rat model of Parkinson's disease. (See, e.g., Ungerstedt, U. “6-hydroxydopamine induced degeneration of monoamine neurons.” Eur. J. Pharm. 5: 107-110, 1968; Garvey P M, et al., “Injection of biologically relevant active substances into the brain.” Methods in Neurosciences. 21: 214-234, 1994).
Pre-lesioned rats were purchased from a vendor (Taconic) following stereotaxic injection into the brain of the neurotoxin 6-hydroxydopamine (6-OHDA), which leads to neuronal cell loss in those brain regions affected in PD (in particular the substantia nigra). Briefly, anesthetized rats were injected with […] of 6-OHDA using stereotaxic coordinates to locate the needle within the nigrostatial pathway. A 2 ug/uL solution of 6-OHDA was infused at a rate of 1 ul/min for four minutes. […] On […] post-injection, rats began a once-daily oral regimen of AV1173 (50 mg/kg PO). Rats were assessed for rotational behavior following 0.5 mg/kg apomorphine challenge, one week from the initiation of dosing (Day 17 post-6-OHDA injection).

[5] abbreviates: Amyloid Beta peptide 30 uM, 3 hours, read-out: p-cJun Abeta SH-SY5Y (EC50 in μM).
Where [6] appears, read: read-out: p-cJun SH-SY5Y (EC50 in μM), no Abeta.

T1 sequence (Q9Y233 1-779 isoform Q9Y233-1): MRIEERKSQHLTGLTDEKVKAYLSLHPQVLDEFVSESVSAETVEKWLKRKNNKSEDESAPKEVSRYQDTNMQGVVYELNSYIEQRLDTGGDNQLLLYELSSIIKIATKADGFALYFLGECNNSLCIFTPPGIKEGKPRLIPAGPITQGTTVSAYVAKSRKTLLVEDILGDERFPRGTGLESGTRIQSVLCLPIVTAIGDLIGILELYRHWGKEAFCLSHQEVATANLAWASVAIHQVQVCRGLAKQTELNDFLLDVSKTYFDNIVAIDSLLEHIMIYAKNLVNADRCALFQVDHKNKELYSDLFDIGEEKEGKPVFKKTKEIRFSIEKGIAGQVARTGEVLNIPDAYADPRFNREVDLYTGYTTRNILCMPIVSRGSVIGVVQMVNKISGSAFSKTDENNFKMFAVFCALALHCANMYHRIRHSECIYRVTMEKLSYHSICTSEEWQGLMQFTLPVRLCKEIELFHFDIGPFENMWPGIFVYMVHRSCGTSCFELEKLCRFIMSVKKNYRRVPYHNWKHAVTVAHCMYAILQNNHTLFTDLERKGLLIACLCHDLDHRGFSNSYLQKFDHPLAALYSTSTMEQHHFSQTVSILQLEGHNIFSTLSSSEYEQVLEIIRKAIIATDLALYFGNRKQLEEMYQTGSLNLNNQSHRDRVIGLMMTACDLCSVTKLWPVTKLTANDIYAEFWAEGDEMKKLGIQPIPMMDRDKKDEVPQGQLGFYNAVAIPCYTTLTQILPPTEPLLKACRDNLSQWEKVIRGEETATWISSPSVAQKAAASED

Take `CC(C)Nc1nccc(-c2c(C(C)C)nn3ccccc23)n1` [AV1137, N-isopropyl-4-(2-isopropylpyrazolo[1,5-a]pyridin-3-yl)pyrimidin-2-amine]: the IC50 in assay [1] worked out at 9.9 µM. Besides, the “PDE-10 inhibition (in words)” value in assay [1] is listed as “particularly effective”. Moreover, the EC50 in assay [2] is 6.1 µM; in assay [3] (setting [5]), above 30 µM; in assay [4], 3 µM. The escape latencies result in the assay with Male Wistar rats (normal rats (no scopolamine), 5 mg/kg i.p., relative to saline controls, FIG. 5) was “trend for reduced escape latencies”. The “escape latency and distance swum” value in the assay on Male Wistar rats (scopolamine-induced deficit, 2 and 5 mg/kg i.p. twice daily, relative to scopolamine treated controls, FIG. 4) was “trend was seen for decreased escape latency and distance swum”.

Consider `CC(C)Nc1nccc(-c2cnn3ccccc23)n1` [AV1164, N-isopropyl-4-(pyrazolo[1,5-a]pyridin-3-yl)pyrimidin-2-amine], for which the IC50 in assay [1] came out at 5.8 µM. Further, the “PDE-10 inhibition (in words)” value in assay [1] was “particularly effective”. In addition, the EC50 in assay [2] came out at 3.1 µM; in assay [3] (setting [5]) it was 2.9 µM; in assay [3] (setting [6]) it was 1.1 µM; in assay [4], 1.4 µM.

`c1ccn2ncc(-c3ccnc(NC4CCCC4)n3)c2c1` [AV1165, N-cyclopentyl-4-(pyrazolo[1,5-a]pyridin-3-yl)pyrimidin-2-amine]: the IC50 in assay [1] was determined as 7.5 µM. In assay [1], the “PDE-10 inhibition (in words)” value is reported as “particularly effective”. The EC50 was 1.1 µM in assay [2], 7.6 µM in assay [3] (setting [6]) and 15 µM in assay [4].

As to `CC(C)Nc1nccc(-c2c(C3CC3)nn3ccccc23)n1` [AV1173, 4-(2-cyclopropylpyrazolo[1,5-a]pyridin-3-yl)-N-isopropylpyrimidin-2-amine], in assay [1], the IC50 was 7.4 µM and the “PDE-10 inhibition (in words)” value is given as “particularly effective”. The EC50 in assay [2] is 7.7 µM. In the assay on 6-OHDA lesioned rats, the “average number of apomorphine induced rotations in 30 minutes” value was determined as 354.

For orientation: IC50 means the concentration at which inhibition is half-maximal. As usually defined, the EC50 is the concentration at which the effect is half-maximal.
